Results reported in publication PMC6993142 (Journal of natural products, 2017).

Experiments:
[1] = MTS dye cytotoxicity assay, whole panel; format: cell-based; conditions: human
[2] = MTS dye cytotoxicity assay, normal HFF cells; format: cell-based; conditions: human, HFF cells (normal foreskin fibroblasts)
[3] = test system: A549, Hep G2, Hep 3B, MCF-7 and MDA-MB-231 cell lines; conditions: MCF-7, MDA-MB-231, ref 11f; cited from earlier work
[4] = test system: RC cells (ACHN, Caki-1, and SN-12-C); conditions: in the presence of TRAIL; cited from earlier work
[5] = test system: ACHN (human renal adenocarcinoma); test: MTS dye cytotoxicity assay, ACHN; format: cell-based; conditions: of the 26 withanolides tested
[6] = test system: LNCaP (androgen-sensitive human prostate adenocarcinoma); test: MTS dye cytotoxicity assay, LNCaP; format: cell-based; conditions: for IC50: Homo sapiens, LNCaP, 72 h, read-out: Cytotoxicity IC50, LNCaP, LNCaP, 72 h, MTS
[7] = test system: MCF-7, MDA-MB-231, H1299, Ca9–22 and HT-29 cells; conditions: MCF-7, MDA-MB-231, H1299, Ca9–22, HT-29; ref 11j, 11h, 11k, 11n; cited from earlier work
[8] = test system: LNCaP (androgen-sensitive human prostate adenocarcinoma); conditions: previously shown; cited from earlier work

Compound | IC50 at 72 h [1] [µM] | IC50 at 72 h [2] [µM] | other results
C[C@H]1C(=O)OC[C@H]1C[C@@H](O)[C@](C)(O)[C@@]1(O)CC[C@@]2(O)[C@@H]3CC=C4CC=CC(=O)[C@]4(C)[C@H]3CC[C@]12C [Compound 25, perulactone H] | > 5 |  | 
CC1=C(C)C(=O)O[C@@H]([C@](C)(O)[C@]2(O)CC[C@@]3(O)[C@@H]4C[C@@H](O)[C@@]5(O)CC=CC(=O)[C@]5(C)[C@H]4CC[C@]23C)C1 [Compound 18, withanolide S] | > 5 |  | 
CC1=C(C)[C@H](O)[C@H]([C@](C)(O)[C@]2(O)CC[C@@]3(O)[C@@H]4C[C@H]5O[C@]56CC=CC(=O)[C@]6(C)[C@H]4CC[C@]23C)OC1=O [Compound 6, (20S,22R)-5β,6β-epoxy-14α,17β,20,23β-tetrahydroxy-1-oxowitha-2,24-dienolide] |  | > 2 | 
CC1=C(C)C(=O)O[C@@H]([C@](C)(O)[C@]2(O)CC[C@@]3(O)[C@@H]4C[C@H]5O[C@]56CC=CC(=O)[C@]6(C)[C@H]4CC[C@]23C)C1 [Compound 13, withanolide E] |  | > 2 | Cytotoxic to cancer cell lines [3]: cytotoxic; Long-term survival of RC cells [4]: eliminate long-term survival; Selectivity for renal carcinoma (ACHN) cells [5]: showed selectivity
C[C@H]1C(=O)OC[C@H]1C[C@@H](O)[C@](C)(O)[C@]1(O)CC[C@@]2(O)[C@@H]3CC=C4CC=CC(=O)[C@]4(C)[C@H]3CC[C@]12C [Compound 24, perulactone B] | > 5 |  | 
CC1=C(C)C(=O)O[C@@H]([C@](C)(O)[C@]2(O)CC[C@@]3(O)[C@@H]4CC=C5[C@@H](O)C=CC(=O)[C@]5(C)[C@H]4CC[C@]23C)C1 [Compound 20, physapruin A] |  | > 2 | Selectivity for renal carcinoma (ACHN) cells [5]: showed selectivity
CC1=C(C)C(=O)O[C@@H]([C@](C)(O)C2=CC[C@@]3(O)[C@@H]4C[C@H]5O[C@]56[C@@H](O)C=CC(=O)[C@]6(C)[C@H]4CC[C@]23C)C1 [Compound 14, phyperunolide A] | > 5 |  | Cytotoxic to cancer cell lines [3]: cytotoxic
CC1=C(C)C(=O)O[C@@H]([C@](C)(O)[C@]2(O)CC[C@@]3(O)[C@@H]4[C@@H](O)C=C5C=CCC(=O)[C@]5(C)[C@H]4CC[C@]23C)C1 [Compound 9, (20S,22R)-7β,14α,17β,20-tetrahydroxy-1-oxowitha-3,5,24-trienolide] |  | > 2 | IC50 [6]: < 2 µM
CC1=C(C)C(=O)O[C@@H]([C@](C)(O)[C@]2(O)CC[C@@]3(O)[C@@H]4[C@@H](O)C=C5CC=CC(=O)[C@]5(C)[C@H]4CC[C@]23C)C1 [Compound 8, (20S,22R)-7β,14α,17β,20-tetrahydroxy-1-oxowitha-2,5,24-trienolide] |  | > 2 | IC50 [6]: < 2 µM
CC1=C(CO)C[C@H]([C@](C)(O)[C@]2(O)CC[C@@]3(O)[C@@H]4CC=C5CC=CC(=O)[C@]5(C)[C@H]4CC[C@]23C)OC1=O [Compound 21, withaperuvin J] |  | > 2 | 
CO[C@H]1C=CC(=O)[C@]2(C)[C@H]3CC[C@]4(C)[C@](O)([C@@](C)(O)[C@H]5CC(C)=C(C)C(=O)O5)CC[C@@]4(O)[C@@H]3C[C@H]3O[C@]132 [Compound 15, withangulatin E] |  | > 2 | IC50 [6]: < 2 µM
C[C@H]1C[C@H]([C@](C)(O)[C@]2(O)CC[C@@]3(O)[C@@H]4C[C@H]5O[C@]56CC=CC(=O)[C@]6(C)[C@H]4CC[C@]23C)OC(=O)[C@@H]1C [Compound 11, (20S,22R,24S,25R)-5β,6β-epoxy-14α,17β,20-trihydroxy-1-oxowitha-2-enolide] |  | > 2 | 
CC1=C(C)C(=O)O[C@@H]([C@](C)(O)[C@]2(O)CC[C@@]3(O)[C@@H]4[C@@H](O)[C@H]5O[C@]56CC=CC(=O)[C@]6(C)[C@H]4CC[C@]23C)C1 [Compound 19, withaperuvin L] |  | > 2 | 
CC1=C(C)C(=O)O[C@@H]([C@](C)(O)[C@]2(O)CC[C@@]3(O)[C@@H]4C[C@H](Cl)[C@]5(O)[C@@H](O)C=CC(=O)[C@]5(C)[C@H]4CC[C@]23C)C1 [Compound 17, physalolactone] | > 5 |  | 
C[C@H]1C(=O)O[C@@H]([C@](C)(O)[C@H]2CC[C@@]3(O)[C@@H]4CC=C5CC=CC(=O)[C@]5(C)[C@H]4CC[C@]23C)[C@@H](O)[C@@H]1CO [Compound 10, (20S,22R)-14α,20,23β,28-tetrahydroxy-1-oxowitha-2,5-dienolide] | > 5 |  | 
CO[C@]12CC=CC(=O)[C@]1(C)[C@H]1CC[C@]3(C)[C@](O)([C@@](C)(O)[C@H]4CC(C)=C(C)C(=O)O4)CC[C@@]3(O)[C@@H]1C[C@H]2O [Compound 16, withanolide S 5-methyl ether] | > 5 |  | 
CC1=C(C)C(=O)O[C@@H]([C@](C)(O)[C@]2(O)CC[C@@]3(O)[C@@H]4CC=C5CC=CC(=O)[C@]5(C)[C@H]4CC[C@]23C)C1 [Compound 22, withanolide F] |  | > 2 | 
CC1=C(C)C(=O)O[C@@H]([C@](C)(O)[C@]2(O)CC[C@@]3(O)[C@@H]4C[C@H](Cl)[C@]5(O)CC=CC(=O)[C@]5(C)[C@H]4CC[C@]23C)C1 [Compound 23, 4-deoxyphysalolactone] | > 5 |  | 
CC1=C(C)C(=O)O[C@@H]([C@](C)(O)[C@]2(O)CC[C@@]3(O)[C@@H]4C[C@H]5O[C@]56[C@@H](O)C=CC(=O)[C@]6(C)[C@H]4CC[C@]23C)C1 [Compound 12, 4β-hydroxywithanolide E] |  | > 2 | Cytotoxic to cancer cell lines [3]: cytotoxic; Inhibition of proliferation [7]: inhibit proliferation
CC(=O)OC[C@]12CC[C@H]3[C@@H](C[C@H]4O[C@]45CC=CC(=O)[C@]35C)[C@]1(O)CC[C@@]2(O)[C@@](C)(O)[C@H]1CC(C)=C(C)C(=O)O1 [Compound 26, Physachenolide C, reference compound] |  | > 2 | Activity for LNCaP cells [8]: selective and potent activity; Selectivity for renal carcinoma (ACHN) cells [5]: showed selectivity; Enhancement of activity (26 vs 13) ([6]; LNCaP cells, acetoxylation at C-18): 3 fold
CC1=C(C)C(=O)O[C@@H]([C@](C)(O)[C@]2(O)CC[C@@]3(O)[C@@H]4C[C@@H](O)[C@@]5(Cl)CC=CC(=O)[C@]5(C)[C@H]4CC[C@]23C)C1 [Compound 27, withanolide C, reference compound] |  |  | Cytotoxic to cancer cell lines [3]: cytotoxic
CC1=C(C)C(=O)O[C@@H]([C@](C)(O)C2=CC[C@@]3(O)[C@@H]4C[C@H]5O[C@]56CC=CC(=O)[C@]6(C)[C@H]4CC[C@]23C)C1 [Compound 7, (20S,22R)-5β,6β-epoxy-14α,20-dihydroxy-1-oxowitha-2,16,24-trienolide] | > 5 |  | 
